Measured values taken from patent US8536202B2, “Triazole-substituted anthranilamides as pesticides” (Bayer Cropscience AG, priority 2010, dated 2013).
Read-outs that look alike come from different tables or passages of the source.

Tests used:
[1] = system: green peach aphid (Myzus persicae); assay: Myzus test (MYZUPE spray treatment), Use Example 4; assay type: in vivo; conditions: 144 h, read-out: activity in %
Protocol: Solvents: 78 parts by weight of acetone • • 1.5 parts by weight of dimethylformamide
Emulsifier: 0.5 part by weight of alkylaryl polyglycol ether
An appropriate preparation of active compound is prepared by mixing 1 part by weight of active compound with the stated amounts of solvents and emulsifier and diluting the concentrate with emulsifier-containing water to the desired concentration.
Leaf discs of Chinese cabbage (Brassica pekinensis) infested by all stages of the green peach aphid (Myzus persicae) are sprayed with a preparation of active compound at the desired concentration.
After 6 days, the activity in % is ascertained. Here, 100% means that all of the aphids have been killed; 0% means that no aphids have been killed.

[2] = system: larvae of the mustard beetle (Phaedon cochleariae); assay: Phaedon test (PHAECO spray treatment); assay type: in vivo; conditions: 168 h, read-out: activity in %
Outline: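 Compound dissolved in acetone/dimethylformamide with alkylaryl polyglycol ether emulsifier, then diluted with emulsifier-containing water to test concentration for spray treatment of Phaedon cochleariae larvae. Activity scored after 7 days as % larvae killed (100% = all dead, 0% = none).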

[3] = system: caterpillars of the armyworm (Spodoptera frugiperda); assay: Spodoptera frugiperda test (SPODFR spray treatment); assay type: in vivo; conditions: 168 h, read-out: activity in %
Outline: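 Maize leaf discs sprayed with compound diluted in emulsifier-containing water (acetone/DMF solvent, alkylaryl polyglycol ether emulsifier), dried, then infested with armyworm caterpillars. Kill scored after 7 days as % mortality, 100% = all caterpillars dead, 0% = none.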

[4] = log P determination by HPLC on reversed-phase columns (EEC Directive 79/831 Annex V.A8); assay type: physicochemical; conditions: pH 2.7
Outline: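 log P from reversed-phase LC-MS retention at pH 2.7, 0.1% formic acid water/acetonitrile gradient 10–95% acetonitrile. Calibrated against C3–C16 unbranched alkan-2-ones, interpolating linearly between adjacent alkanones.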

[5] = reversed-phase C18 HPLC column, HPLC on reversed-phase columns (C 18), EEC Directive 79/831 Annex V.A8, read-out: logP
[6] = HPLC on reversed-phase columns (C 18), EEC Directive 79/831 Annex V.A8, read-out: logP

| chromatographic logP [4, 5] | Structure (SMILES) | pest or weed control at 100 g/ha ([1]; 100 g/ha, after 6 days) [%] | pest or weed control at 100 g/ha ([2]; 100 g/ha, after 7 days) [%] | pest or weed control at 100 g/ha ([3]; 100 g/ha, after 7 days) [%] | chromatographic logP [4] | pest or weed control at 100 g/ha [1] [%] | pest or weed control at 100 g/ha [2] [%] | pest or weed control at 100 g/ha [3] [%] | chromatographic logP [4, 6] |
| --- | --- | --- | --- | --- | --- | --- | --- | --- | --- |
|  | Cc1cc(C#N)cc(C(=O)NCC2CC2)c1NC(=O)c1cc(Cn2cc(C(F)(F)F)nn2)nn1-c1ncccc1Cl [Example 185] | 90 | 100 | 100 | 2.81 |  |  |  |  |
|  | Cc1cc(Cl)cc(C(=O)NCC#N)c1NC(=O)c1cc(Cn2ncc(C(F)(F)F)n2)nn1-c1ncccc1Cl [Example 143] | 100 | 100 | 100 | 2.97 |  |  |  |  |
|  | Cc1cc(Cl)cc(C(=O)NC(C)C)c1NC(=O)c1cc(Cn2cc(C(F)(F)C(F)(F)F)nn2)nn1-c1ncccc1Cl [Example 303] | 100 | 100 | 100 | 3.5 |  |  |  |  |
| 3.63 | CSC[C@H](C)NC(=O)c1cc(C#N)cc(C)c1NC(=O)c1cc(Cn2cc(C(F)(C(F)(F)F)C(F)(F)F)nn2)nn1-c1ncccc1Cl [Example 222] | 100 | 100 | 100 |  |  |  |  |  |
|  | Cc1cc(Cl)cc(C(=O)NC2CC2)c1NC(=O)c1cc(Cn2cc(C(F)(F)C(F)(F)C(F)(F)F)nn2)nn1-c1ncccc1Cl [Example 326] |  |  |  |  | 100 | 100 | 100 | 3.57 |
|  | CC(C)(C)NC(=O)c1cc(Cl)cc(Cl)c1NC(=O)c1cc(Cn2cc(C(F)(F)F)nn2)nn1-c1ncccc1Cl [Example 201] | 100 | 100 | 100 | 3.42 |  |  |  |  |
|  | CSC[C@H](C)NC(=O)c1cc(Cl)cc(C)c1NC(=O)c1cc(Cn2cc(C(F)(F)C(F)(F)C(F)(F)F)nn2)nn1-c1ncccc1Cl [Example 324] |  |  |  |  | 100 | 100 | 100 | 3.99 |
| 2.55 | Cc1cc(C#N)cc(C(=O)NC2CC2)c1NC(=O)c1cc(Cn2ncc(C(F)(F)F)n2)nn1-c1ncccc1Br [Example 11] | 100 | 100 | 100 |  |  |  |  |  |
|  | Cc1cc(Cl)cc(C(N)=O)c1NC(=O)c1cc(Cn2ncc(C(F)(F)C(F)(F)F)n2)nn1-c1ncccc1Cl [Example 359] | 100 | 100 | 100 | 3.12 |  |  |  |  |
|  | Cc1cc(Cl)cc(C(=O)NC(C)(C)C)c1NC(=O)c1cc(Cn2nccn2)nn1-c1ncccc1Cl [Example 121] | 100 | 100 | 100 | 2.87 |  |  |  |  |
|  | Cc1cc(C#N)cc(C(=O)NCC2CC2)c1NC(=O)c1cc(Cn2ncc(C(F)(F)F)n2)nn1-c1ncccc1Cl [Example 130] | 100 | 100 | 100 | 3.17 |  |  |  |  |
|  | CNC(=O)c1cc(C#N)cc(C)c1NC(=O)c1cc(Cn2ncc(C(F)(F)C(F)(F)C(F)(F)F)n2)nn1-c1ncccc1Cl [Example 387] |  |  |  |  | 100 | 100 | 100 | 3.39 |
|  | Cc1cc(C#N)cc(C(=O)NC(C)(C)C)c1NC(=O)c1cc(Cn2cc(-c3ccc(F)cc3)nn2)nn1-c1ncccc1Cl [Example 53] | 80 | 100 | 100 | 3.17 |  |  |  |  |
